Read-outs that look alike come from different tables or passages of the source.
Legend:
[1] = test system: human allogenic MLR (human peripheral blood lymphocytes); experiment: human allogenic MLR-suppressive activity, 3H-thymidine uptake; format: cell-based
Experimental: The human allogenic MLR-suppressive activity was assayed as follows:
Human peripheral blood lymphocytes obtained by Ficoll-Paque density gradient centrifugation of normal human peripheral blood were suspended in the RPMI1640 culture medium supplemented with 10% FCS, placed in a plastic dish, and cultured in an atmosphere of 5% carbon dioxide and 95% air at 37° C. for 2 hours. After termination of culture, the supernatant after gentle pipetting was collected and centrifuged (1000 rpm, for 5 minutes) to obtain plastic-nonadherent cells. The plastic-nonadherent cells were allowed to pass through a nylon-wool column to give nylon-nonadherent cells, and the concentration of the cell suspension was adjusted to 4×10^6 cells/ml by using the RPMI1640 culture medium supplemented with 10% FCS, and used as the responder cell suspension.
The plastic-adherent cells were removed from the plastic dish by vigorous pipetting after addition of phosphate buffered saline (PBS) supplemented with 5% FCS and 0.02% disodium ethylenediaminetetraacetic acid (EDTA). The plastic-adherent cells were treated with 40 μg/ml of mitomycin C at 37° C. for 60 minutes, washed three times, and suspended to the concentration of 4×10^6 cells/ml in the RPMI1640 culture medium supplemented with 10% FCS. The resultant suspension was used as the stimulator cell suspension.
After termination of culture, 37 KBq/well of ^3 H-thymidine was added, and after 18 hours of culture, the cells were harvested by a cell-harvester. The radioactivity incorporated into the cells was measured by a liquid scintillation counter, which was used as an index of blastogenic response of lymphocytes in human allogenic MLR. The suppression of human allogenic MLR was evaluated by calculating the percent suppression by the following formula. [formula]

[2] = test system: allo-reactive cytotoxic T cell (EL4 target cells); experiment: suppression of induction of allo-reactive cytotoxic T cell in mouse allogenic mixed lymphocyte culture (MLC), 51Cr release; format: cell-based
Experimental: The target cells used were leukemia cells EL4 from the syngenic (H-2^b) C57BL/6 mouse as used for preparation of the stimulator cells. By incubating 10^6 EL4 cells in the presence of 370 KBq of Na2^51 CrO4 at 37° C. for 1 hour, ^51 Cr was incorporated into the cytoplasm. The cells were washed, adjusted to the concentration of 10^4 cells/ml and used as the target cells.
For the assay of the cytotoxic activity, 100 μl of the effector cell suspension and 100 μl of the target cell suspension were added to a 96-well flat-bottomed microculture plate, and cultured at 37° C. for 4 hours. The amount of ^51 Cr released into the supernatant was determined and the cytotoxic activity was calculated by the following formula. [formula]
The activity of the cytotoxic T cell is expressed by LU (lytic unit) per 10^6 effector cells.

[3] = test system: IL-3 production in mouse allogenic MLC; experiment: suppression of IL-3 production in mouse allogenic MLC; format: cell-based
Experimental: Mouse allogenic MLC was carried out as follows:
After termination of culture, the supernatant was collected and used as the supernatant of mouse allogenic MLC.

[4] = test system: allo-specific cytotoxic antibody in serum of EL4-immunized BALB/c mice; experiment: suppression of allo-specific cytotoxic antibody production induced by allogenic cell immunization of mouse; format: in vivo
Experimental: Male 5- to 7-week-old BALB/c mice were immunized with leukemia cell EL4 derived from C57BL/6 mice (10^7 cells/mouse, intraperitoneal administration) in the same way as in Experiment Example 9, and the […] Nine to ten days after immunization, a serum was collected from the mice. Fifty μl of the two-fold serial dilution of the serum, 50 μl of a guinea pig complement and EL4 cell suspension labelled with ^51 Cr as the target cell (5×10^4 cells/ml, 100 μl) were together added to a 96-well microtest plate. After incubation at 37° C. for 1 hour, the amount of ^51 Cr released in the supernatant was measured, and the complement-dependent cytotoxicity was calculated by the following formula. [formula]
The value of allo-specific cytotoxic antibody determined as above was expressed by the titer calculated on the basis of the concentration at which the releasing amount of ^51 Cr was 50% of that of ^51 Cr-labelled target cells treated with 0.1 N HCl.

[5] = cytotoxicity to cultured tumor cell line K562; conditions: human, k562 cells, Suppression
Experimental: (§1) Cytotoxicity to various human tumor cell lines was examined as follows:
(§2) Cells of human cell lines, K562, MOLT4, U937 and HL60 were respectively suspended to the concentration of 4×10^5 cells/ml in the RPMI1640 culture medium supplemented with 20% FCS. Fifty μl of each suspension was added to each well of a 96-well microtest plate to which 50 μl of the test solution had been added. After culturing the suspension at 37° C. in an atmosphere of 5% carbon dioxide for 72 hours, the absorbancy at 570 nm was measured in the same way as with the colorimetry using MTT in Experiment Example 1, and the percent suppression was calculated by the following formula, which was used as an index of cytotoxicity.

K562 = experiment: cytotoxicity to cultured tumor cell line K562
Experimental: as §1, §2

[6] = 0.003 mg/kg/day po × 10, Table 10D
[7] = 0.01 mg/kg/day po × 5, Table 10C
[8] = 0.01 mg/kg/day po × 10, Table 10D
[9] = 0.03 mg/kg/day po × 5, Table 10C
[10] = 0.03 mg/kg/day po × 10, Table 10D
[11] = 0.1 mg/kg/day po × 5, Table 10C
[12] = 0.1 mg/kg/day po × 10, Table 10D
[13] = 0.3 mg/kg/day po × 5, Table 10C
[14] = 0.3 mg/kg/day po × 10, Table 10D

CCCCCCCCCCCCC/C=C/C[C@@H](O)[C@H](O)[C@@](N)(CO)C(=O)O [Example 5]
3H-thymidine uptake ([1]; 0.00001 μg/ml, Donor A/Donor B): 14723 cpm
3H-thymidine uptake ([1]; 0.0001 μg/ml, Donor A/Donor B): 8052 cpm
3H-thymidine uptake ([1]; 0.0001 μg/ml, Donor C/Donor D): 15723 cpm
3H-thymidine uptake ([1]; 0.001 μg/ml, Donor A/Donor B): 5363 cpm
3H-thymidine uptake ([1]; 0.001 μg/ml, Donor C/Donor D): 7145 cpm
3H-thymidine uptake ([1]; 0.01 μg/ml, Donor A/Donor B): 5042 cpm
3H-thymidine uptake ([1]; 0.01 μg/ml, Donor C/Donor D): 5878 cpm
3H-thymidine uptake ([1]; 0.1 μg/ml, Donor A/Donor B): 4660 cpm
3H-thymidine uptake ([1]; 0.1 μg/ml, Donor C/Donor D): 4703 cpm
3H-thymidine uptake ([1]; 1 μg/ml, Donor A/Donor B): 5545 cpm
3H-thymidine uptake ([1]; 1 μg/ml, Donor C/Donor D): 5601 cpm
suppressive activity in human allogenic MLR (in words) ([1]; 1 to 0.0001 μg/ml): exhibited suppressive activity in human allogenic MLR in a concentration-dependent manner
inhibition at 10 pg/mL ([1]; Homo sapiens, Lymphocyte, 0.00001 μg/ml, Donor A/Donor B, read-out: Suppression): 0%
inhibition at 0.0001 µg/mL ([1]; Homo sapiens, Lymphocyte, 0.0001 μg/ml, Donor A/Donor B, read-out: Suppression): 34.4%
inhibition at 0.0001 µg/mL ([1]; Homo sapiens, Lymphocyte, 0.0001 μg/ml, Donor C/Donor D, read-out: Suppression): 22.1%
inhibition at 0.001 µg/mL ([1]; Homo sapiens, Lymphocyte, 0.001 μg/ml, Donor A/Donor B, read-out: Suppression): 58.5%
inhibition at 0.001 µg/mL ([1]; Homo sapiens, Lymphocyte, 0.001 μg/ml, Donor C/Donor D, read-out: Suppression): 65.8%
inhibition at 0.01 µg/mL ([1]; Homo sapiens, Lymphocyte, 0.01 μg/ml, Donor A/Donor B, read-out: Suppression): 61.4%
inhibition at 0.01 µg/mL ([1]; Homo sapiens, Lymphocyte, 0.01 μg/ml, Donor C/Donor D, read-out: Suppression): 72.3%
inhibition at 0.1 µg/mL ([1]; Homo sapiens, Lymphocyte, 0.1 μg/ml, Donor A/Donor B, read-out: Suppression): 64.8%
inhibition at 0.1 µg/mL ([1]; Homo sapiens, Lymphocyte, 0.1 μg/ml, Donor C/Donor D, read-out: Suppression): 78.3%
inhibition at 1 µg/mL ([1]; Homo sapiens, Lymphocyte, 1 μg/ml, Donor A/Donor B, read-out: Suppression): 56.9%
inhibition at 1 µg/mL ([1]; Homo sapiens, Lymphocyte, 1 μg/ml, Donor C/Donor D, read-out: Suppression): 73.7%
Cytotoxic activity ([2]; 0.00001 μg/ml, C3H/HeN responder): 9.8 LU/10^6
Cytotoxic activity ([2]; 0.0001 μg/ml, BALB/c responder): 9.2 LU/10^6
Cytotoxic activity ([2]; 0.0001 μg/ml, C3H/HeN responder): 8.0 LU/10^6
Cytotoxic activity ([2]; 0.001 μg/ml, BALB/c responder): 3.7 LU/10^6
Cytotoxic activity ([2]; 0.001 μg/ml, C3H/HeN responder): 6.8 LU/10^6
Cytotoxic activity ([2]; 0.01 μg/ml, BALB/c responder): 1.6 LU/10^6
Cytotoxic activity ([2]; 0.01 μg/ml, C3H/HeN responder): < 0.5 LU/10^6
Cytotoxic activity ([2]; 0.1 μg/ml, BALB/c responder): < 0.5 LU/10^6
Cytotoxic activity ([2]; 0.1 μg/ml, C3H/HeN responder): < 0.5 LU/10^6
Cytotoxic activity ([2]; 1 μg/ml, BALB/c responder): < 0.5 LU/10^6
Cytotoxic activity ([2]; 1 μg/ml, C3H/HeN responder): < 0.5 LU/10^6
inhibition at 10 pg/mL ([2]; Mus musculus, T-cell, 144 h, 0.00001 μg/ml, C3H/HeN responder): 35.4%
inhibition at 0.0001 µg/mL ([2]; Mus musculus, T-cell, 144 h, 0.0001 μg/ml, BALB/c responder): 34.1%
inhibition at 0.0001 µg/mL ([2]; Mus musculus, T-cell, 144 h, 0.0001 μg/ml, C3H/HeN responder): 47.5%
inhibition at 0.001 µg/mL ([2]; Mus musculus, T-cell, 144 h, 0.001 μg/ml, C3H/HeN responder): 54.2%
inhibition at 0.01 µg/mL ([2]; Mus musculus, T-cell, 144 h, 0.01 μg/ml, C3H/HeN responder): > 95%
inhibition at 0.1 µg/mL ([2]; Mus musculus, T-cell, 144 h, 0.1 μg/ml, C3H/HeN responder): > 95%
inhibition at 1 µg/mL ([2]; Mus musculus, T-cell, 144 h, 1 μg/ml, C3H/HeN responder): > 95%
inhibition at 0.001 µg/mL ([2]; Mus musculus, T-cell, 144 h, 0.001 μg/ml, BALB/c responder): 73.2%
inhibition at 0.01 µg/mL ([2]; Mus musculus, T-cell, 144 h, 0.01 μg/ml, BALB/c responder): 88.4%
inhibition at 0.1 µg/mL ([2]; Mus musculus, T-cell, 144 h, 0.1 μg/ml, BALB/c responder): > 95%
inhibition at 1 µg/mL ([2]; Mus musculus, T-cell, 144 h, 1 μg/ml, BALB/c responder): > 95%
induction of the allo-reactive cytotoxic T cell (in words), BALB/c responder ([2]; Table 3A): markedly inhibited
induction of the allo-reactive cytotoxic T cell (in words), C3H/HeN responder ([2]; Table 3B): suppressed
IL-3 activity ([3]; 0.0001 μg/ml): 32.7 U/ml
IL-3 activity ([3]; 0.001 μg/ml): 19.2 U/ml
IL-3 activity ([3]; 0.01 μg/ml): 11.5 U/ml
IL-3 activity ([3]; 0.1 μg/ml): 7.9 U/ml
IL-3 activity ([3]; 1 μg/ml): 7.9 U/ml
inhibition at 0.0001 µg/mL ([3]; Mus musculus, 48 h, 0.0001 μg/ml): 42.1%
inhibition at 0.001 µg/mL ([3]; Mus musculus, 48 h, 0.001 μg/ml): 76.5%
inhibition at 0.01 µg/mL ([3]; Mus musculus, 48 h, 0.01 μg/ml): 96.2%
inhibition at 0.1 µg/mL ([3]; Mus musculus, 48 h, 0.1 μg/ml): 100%
inhibition at 1 µg/mL ([3]; Mus musculus, 48 h, 1 μg/ml): 100%
Allogenic cell-specific antibody in serum, suppression [4, 6]: 28.3%
Allogenic cell-specific antibody in serum, titer [4, 6]: 147 ± 43
Allogenic cell-specific antibody in serum, suppression [4, 7]: 0%
Allogenic cell-specific antibody in serum, titer [4, 7]: 318 ± 75
Allogenic cell-specific antibody in serum, suppression [4, 8]: 45.4%
Allogenic cell-specific antibody in serum, titer [4, 8]: 112 ± 66
Allogenic cell-specific antibody in serum, suppression [4, 9]: 37.8%
Allogenic cell-specific antibody in serum, titer [4, 9]: 186 ± 100
Allogenic cell-specific antibody in serum, suppression [4, 10]: 40.0%
Allogenic cell-specific antibody in serum, titer [4, 10]: 123 ± 43
Allogenic cell-specific antibody in serum, suppression [4, 11]: 61.5%
Allogenic cell-specific antibody in serum, titer [4, 11]: 115 ± 19
Allogenic cell-specific antibody in serum, suppression [4, 12]: 71.2%
Allogenic cell-specific antibody in serum, titer [4, 12]: 59 ± 38
Allogenic cell-specific antibody in serum, suppression [4, 13]: 69.6%
Allogenic cell-specific antibody in serum, titer [4, 13]: 91 ± 67
Allogenic cell-specific antibody in serum, suppression [4, 14]: 76.1%
Allogenic cell-specific antibody in serum, titer [4, 14]: 49 ± 26
Allogenic cell-specific antibody in serum, suppression ([4]; 1 mg/kg/day po × 5, Table 10C): 82.5%
Allogenic cell-specific antibody in serum, titer ([4]; 1 mg/kg/day po × 5, Table 10C): 52 ± 27
Allogenic cell-specific antibody in serum, suppression ([4]; 1 mg/kg/day po × 10, Table 10D): 76.6%
Allogenic cell-specific antibody in serum, titer ([4]; 1 mg/kg/day po × 10, Table 10D): 48 ± 37
allo-specific cytotoxic antibody production in serum (in words) ([4]; intraperitoneal or oral, Tables 10A to 10D): strongly suppresses allo-specific cytotoxic antibody production in serum
cytotoxicity at 72 h ([5]; 0.1 μg/ml): 2.2%
cytotoxicity at 72 h ([5]; 1 μg/ml): 4%
cytotoxicity at 72 h ([5]; 10 μg/ml): 4.7%
Absorbancy (K562; 0.1 μg/ml): 1.111 ± 0.037
Absorbancy (K562; 1 μg/ml): 1.090 ± 0.044
Absorbancy (K562; 10 μg/ml): 1.083 ± 0.033

Reference: patent US5068247A, “2-aminopentanoic acid compounds and their use as immunosuppressants” (priority 1989, dated 1991)
